In patent US12398154B2, “Azaquinazoline pan-KRas inhibitors” (Mirati Therapeutics, Inc., priority 2020, dated 2025) one finds IC50 data, which are given here for five molecules.

pIC50: −log10 of the molar value.

In one assay the target is KRas G12S (Homo sapiens, UniProt P01116, G12S). Briefly: biochemical.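 Further: TR-FRET displacement binding to KRas, read after one hour incubation at room temperature, IC50 from four-parameter fit of percent of control.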
For a further assay, the target named is T1, KRas G13D (Homo sapiens, UniProt P01116, G13D).
T1 construct: Biotinylated KRas (corresponding to amino acids 1-169, produced at Accelegan Inc.); biotin (biotinylated); purchased Accelegan Inc
Briefly: KRas binding assay (TR-FRET displacement). For orientation: Time-resolved FRET reads energy transfer from a long-lived donor to a nearby acceptor.

A further assay deals with KRas G12A (Homo sapiens, UniProt P01116, G12A). The assay can be described thus: biochemical.
A further assay addresses KRas G12R (Homo sapiens, UniProt P01116, G12R). The assay can be described thus: biochemical.
A further assay concerns the target KRas G12C (Homo sapiens, UniProt P01116, G12C). The assay can be described thus: biochemical.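 Further: binding to KRas assessed by TR-FRET displacement after one hour incubation at room temperature, potency fitted from percent-of-control values.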
The next assay concerns the target KRas G12V (Homo sapiens, UniProt P01116, G12V). Briefly: biochemical.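 Further: KRas binding measured by TR-FRET displacement at room temperature, IC50 fitted from percent of control values.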
The target of a further assay is T2, KRas Q61H (Homo sapiens, UniProt P01116, Q61H).
T2 construct: Biotinylated KRas (corresponding to amino acids 1-169, produced at Accelegan Inc.); biotin (biotinylated); purchased Accelegan Inc
Briefly: KRas binding assay (TR-FRET displacement).

For the next assay, the target named is KRas G12D (Homo sapiens, UniProt P01116, G12D). The assay can be described thus: biochemical.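 Further: TR-FRET displacement binding assay on KRas, read after a one-hour incubation at room temperature, IC50 fitted from percent-of-control values.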
In the next assay the target is KRas WT (Homo sapiens, UniProt P01116). Briefly: biochemical.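 Further: binding to KRas read as TR-FRET displacement after a one-hour room-temperature incubation, IC50 derived from percent-of-control values.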
KRas WT, sequence (P01116 1-169 isoform P01116-2): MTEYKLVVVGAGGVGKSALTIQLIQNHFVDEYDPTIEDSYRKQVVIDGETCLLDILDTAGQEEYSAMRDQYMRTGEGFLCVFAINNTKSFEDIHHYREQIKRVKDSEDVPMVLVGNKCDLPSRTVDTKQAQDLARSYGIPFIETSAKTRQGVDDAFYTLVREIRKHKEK

T1 sequence (P01116 1-169 isoform P01116-2 G13D): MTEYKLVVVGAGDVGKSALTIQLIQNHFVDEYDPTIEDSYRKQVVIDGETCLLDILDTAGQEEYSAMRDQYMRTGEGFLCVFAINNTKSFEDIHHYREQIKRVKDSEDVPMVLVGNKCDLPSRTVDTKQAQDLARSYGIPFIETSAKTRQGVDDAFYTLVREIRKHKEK
KRas G12C, sequence (P01116 1-169 isoform P01116-2 G12C): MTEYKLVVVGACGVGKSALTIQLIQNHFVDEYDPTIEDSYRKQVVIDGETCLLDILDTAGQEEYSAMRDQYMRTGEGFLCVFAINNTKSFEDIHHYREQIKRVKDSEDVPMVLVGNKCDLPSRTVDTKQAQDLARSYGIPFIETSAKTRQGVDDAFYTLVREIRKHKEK
KRas G12S, sequence (P01116 1-169 isoform P01116-2 G12S): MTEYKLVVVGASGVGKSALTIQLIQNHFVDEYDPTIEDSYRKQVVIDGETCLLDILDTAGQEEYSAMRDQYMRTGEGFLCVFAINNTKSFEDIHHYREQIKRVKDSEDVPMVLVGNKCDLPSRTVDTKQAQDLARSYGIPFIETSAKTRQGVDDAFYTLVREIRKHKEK
KRas G12V, sequence (P01116 1-169 isoform P01116-2 G12V): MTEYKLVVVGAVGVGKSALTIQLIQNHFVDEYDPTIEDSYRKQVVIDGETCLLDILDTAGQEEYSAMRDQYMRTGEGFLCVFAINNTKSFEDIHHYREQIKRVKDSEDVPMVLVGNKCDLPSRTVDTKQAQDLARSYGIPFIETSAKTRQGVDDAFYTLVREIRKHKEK
KRas G12R, sequence (P01116 1-169 isoform P01116-2 G12R): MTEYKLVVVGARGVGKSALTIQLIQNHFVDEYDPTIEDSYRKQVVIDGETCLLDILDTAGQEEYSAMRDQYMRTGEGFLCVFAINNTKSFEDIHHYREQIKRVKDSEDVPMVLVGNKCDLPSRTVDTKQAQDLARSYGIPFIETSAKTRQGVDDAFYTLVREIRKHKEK
KRas G12D, sequence (P01116 1-169 isoform P01116-2 G12D): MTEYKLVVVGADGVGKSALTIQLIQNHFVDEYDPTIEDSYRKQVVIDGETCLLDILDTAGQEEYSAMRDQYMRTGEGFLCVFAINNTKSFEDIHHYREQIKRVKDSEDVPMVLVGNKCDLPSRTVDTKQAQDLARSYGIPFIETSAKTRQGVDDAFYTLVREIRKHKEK
KRas G12A, sequence (P01116 1-169 isoform P01116-2 G12A): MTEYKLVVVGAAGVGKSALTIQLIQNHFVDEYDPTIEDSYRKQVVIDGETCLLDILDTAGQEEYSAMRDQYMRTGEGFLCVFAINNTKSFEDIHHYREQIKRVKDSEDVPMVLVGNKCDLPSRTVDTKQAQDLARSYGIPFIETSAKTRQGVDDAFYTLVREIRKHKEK
T2 sequence (P01116 1-169 isoform P01116-2 Q61H): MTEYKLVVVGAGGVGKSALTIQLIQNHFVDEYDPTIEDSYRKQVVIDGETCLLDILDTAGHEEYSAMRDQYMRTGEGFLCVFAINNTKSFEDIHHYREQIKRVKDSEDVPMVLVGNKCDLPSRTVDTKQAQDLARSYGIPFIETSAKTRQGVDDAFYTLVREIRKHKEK

On to `Oc1nc(CCCNc2nc(OCC34CCCN3CCC4)nc3c(F)c(-c4cccc5cccc(Cl)c45)ncc23)n[nH]1` [Example 103, 3-(3-((7-(8-chloronaphthalen-1-yl)-8-fluoro-2-((tetrahydro-1H-pyrrolizin-7a(5H)-yl)methoxy)pyrido[4,3-d]pyrimidin-4-yl)amino)propyl)-1H-1,2,4-triazol-5-ol], for which the negative-log IC50 (pIC50) (usually the negative decadic logarithm of the IC50, by convention in mol/L) against KRas G12S was 5.61; against KRas G12A, 5.68; against KRas G12R, 5.82; against KRas G12C it was 5.72; against KRas G12V it was 5.74; against KRas G12D, 4.81. Also, the negative logarithm of the IC50 (pIC50) at KRas WT was 5.40. Moreover, the half-maximal inhibitory concentration (IC50) (as a rule, the concentration that gives 50% inhibition) amounted to 4210 nM at KRas G13D and 4940 nM on KRas Q61H.

With `Fc1c(-c2cccc3cccc(Cl)c23)ncc2c(N3CCCC3c3cn[nH]c3)nc(OCC34CCCN3CCC4)nc12` (stereo not drawn) [Example 104, 4-(2-(1H-pyrazol-4-yl)pyrrolidin-1-yl)-7-(8-chloronaphthalen-1-yl)-8-fluoro-2-((tetrahydro-1H-pyrrolizin-7a(5H)-yl)methoxy)pyrido[4,3-d]pyrimidine], the pIC50 against KRas G12S was 5.70; at KRas G12A, 5.76; at KRas G12R, 5.55; on KRas G12C, 5.64; against KRas G12V, 5.54; on KRas G12D, 5.12. On KRas WT, this molecule had a pIC50 of 5.63. In addition, the values for the IC50 on KRas G13D and on KRas Q61H were 3640 nM and 3210 nM, respectively.

`OCc1n[nH]c(CNc2nc(OCC34CCCN3CCC4)nc3c(F)c(-c4cccc5cccc(Cl)c45)ncc23)n1` [Example 105, (5-(((7-(8-chloronaphthalen-1-yl)-8-fluoro-2-((tetrahydro-1H-pyrrolizin-7a(5H)-yl)methoxy)pyrido[4,3-d]pyrimidin-4-yl)amino)methyl)-1H-1,2,4-triazol-3-yl)methanol]: the negative-log IC50 (pIC50) against KRas G12S was 5.24; on KRas G12A, 5.17; at KRas G12R it was 5.23; against KRas G12C, 5.45; on KRas G12V it was 5.55; on KRas G12D, 5.04. On KRas WT, this molecule gave a negative-log IC50 (pIC50) of 5.10. For the same molecule, the IC50 on KRas G13D and at KRas Q61H was 13800 nM in each case.

Take `OC1CC2CC(C1)N(c1nc(OCC34CCCN3CCC4)nc3c(F)c(-c4cccc5cccc(Cl)c45)ncc13)C2` (stereo not drawn) [Example 106, 6-(7-(8-chloronaphthalen-1-yl)-8-fluoro-2-((tetrahydro-1H-pyrrolizin-7a(5H)-yl)methoxy)pyrido[4,3-d]pyrimidin-4-yl)-6-azabicyclo[3.2.1]octan-3-ol]: the negative logarithm of the IC50 (pIC50) at KRas G12S was 6.43; at KRas G12A, 6.14; at KRas G12R, 5.82; at KRas G12C it was 5.95; against KRas G12V, 6.21; against KRas G12D, 5.44. The same molecule gave a negative-log IC50 (pIC50) against KRas WT of 5.68. The half-maximal inhibitory concentration (IC50) at KRas G13D and on KRas Q61H was 2340 nM throughout.

As for `NC(=O)N1CC(Nc2nc(OCC34CCCN3CCC4)nc3c(F)c(-c4cccc5cccc(Cl)c45)ncc23)C1` [Example 107, 3-((7-(8-chloronaphthalen-1-yl)-8-fluoro-2-((tetrahydro-1H-pyrrolizin-7a(5H)-yl)methoxy)pyrido[4,3-d]pyrimidin-4-yl)amino)azetidine-1-carboxamide], the negative logarithm of the IC50 (pIC50) was 5.16 on KRas G12S; 5.19 on KRas G12A; 5.34 on KRas G12R; 5.45 against KRas G12C; 5.47 against KRas G12V; 4.97 at KRas G12D. Moreover, the pIC50 against KRas WT was 5.07. Besides, the values for the IC50 at KRas G13D and at KRas Q61H were 8790 nM and 8780 nM, respectively.
